In US4321265A, “7α-Methoxycephalosporins” (Toyama Chemical Co., Ltd., priority 1977, dated 1982):
In brackets after ≈: the same amount, converted by molar mass.

Columns and labels:
Assay in all cases: Minimum inhibitory concentration (MIC), Heart Infusion agar
Type in all cases: cell-based
[1] = tested on: Acinetobacter caloaceticus A-6; settings: A6; Acinetobacter caloaceticus A-6; 10^6 cells/ml; 20 hours, 37° C.; read-out: minimum inhibitory concentration (MIC)
Method: (§1) Antibacterial activities of the representative compounds (Ib) of the 7α-methoxycephalosporins according to this invention are shown in Table 1. [drawing 20]
(§2) The figures given in Table 1 represent the minimum inhibitory concentration (MIC in mcg/ml) of each compound, which was determined according to the method described in "Chemotherapy (Society of Chemotherapy, Japan), Vol. 16, 98-99 (1968)": A culture obtained by cultivating the test bacterium in a Heart Infusion broth (Eiken Kagaku Co.) was inoculated into a Heart Infusion agar medium (Eiken Kagaku Co.). After 20 hours of the incubation at 37° C., the growth of the bacterium was inspected to determine the minimum inhibitory concentration (MIC in mcg/ml). The inoculation rate of the bacterium was 10^4 cells/plate (10^6 cells/ml).
(§3) (1) Minimum inhibitory concentration (MIC in mcg/ml).

[2] = tested on: C. freundii GN-346 (Cephalosporinase-producing bacterium); settings: Citrobacter freundii, GN346; C. freundii GN-346; 10^6 cells/ml; 20 hours, 37° C.; read-out: minimum inhibitory concentration (MIC)
Method: as §1, §2, §3

[3] = tested on: Citrobacter N-7; settings: N7; Citrobacter N-7; 10^6 cells/ml; 20 hours, 37° C.; read-out: minimum inhibitory concentration (MIC)
Method: as §1, §2, §3

[4] = tested on: E. coli NIHJ; settings: Escherichia coli; E. coli NIHJ; 10^6 cells/ml; 20 hours, 37° C.; read-out: minimum inhibitory concentration (MIC)
Method: as §1, §2, §3

[5] = tested on: Ent. cloacae IID977; settings: Enterobacter cloacae; Ent. cloacae IID977; 10^6 cells/ml; 20 hours, 37° C.; read-out: minimum inhibitory concentration (MIC)
Method: as §1, §2, §3

[6] = tested on: K. pneumoniae Y-50; settings: Klebsiella pneumoniae, Y50; K. pneumoniae Y-50; 10^6 cells/ml; 20 hours, 37° C.; read-out: minimum inhibitory concentration (MIC)
Method: as §1, §2, §3

[7] = tested on: Klebsiella spp. Y-72; settings: SPP.Y72; Klebsiella spp. Y-72; 10^6 cells/ml; 20 hours, 37° C.; read-out: minimum inhibitory concentration (MIC)
Method: as §1, §2, §3

[8] = tested on: Prot. vulgaris GN-76; settings: Proteus vulgaris, GN76; Prot. vulgaris GN-76; 10^6 cells/ml; 20 hours, 37° C.; read-out: minimum inhibitory concentration (MIC)
Method: as §1, §2, §3

[9] = tested on: Ps. aeruginosa IFO-3445; settings: Pseudomonas aeruginosa, IFO3445; Ps. aeruginosa IFO-3445; 10^6 cells/ml; 20 hours, 37° C.; read-out: minimum inhibitory concentration (MIC)
Method: as §1, §2, §3

[10] = tested on: Ps. aeruginosa S-68; settings: Pseudomonas aeruginosa, S68; Ps. aeruginosa S-68; 10^6 cells/ml; 20 hours, 37° C.; read-out: minimum inhibitory concentration (MIC)
Method: as §1, §2, §3

[11] = tested on: S. aureus F-19 (Penicillinase-producing bacterium); settings: Staphylococcus aureus; S. aureus F-19; 10^6 cells/ml; 20 hours, 37° C.; read-out: minimum inhibitory concentration (MIC)
Method: as §1, §2, §3

[12] = tested on: Ser. marcescens IID620; settings: Serratia marcescens; Ser. marcescens IID620; 10^6 cells/ml; 20 hours, 37° C.; read-out: minimum inhibitory concentration (MIC)
Method: as §1, §2, §3

[13] = tested on: Ser. marcescens W-8; settings: Serratia marcescens, W8; Ser. marcescens W-8; 10^6 cells/ml; 20 hours, 37° C.; read-out: minimum inhibitory concentration (MIC)
Method: as §1, §2, §3

[14] = tested on: Ser. marcescens W-35; settings: Serratia marcescens, W35, 20 h, Ser. marcescens W-35; 10^6 cells/ml; 20 hours, 37° C. (Table 1); read-out: minimum inhibitory concentration (MIC)
Method: as §1
as §2, with “The inoculation rate of the bacterium was 10^4 cells/plate (10^6 cells/ml).” left out
as §3

Structure (SMILES)	MIC [1] [µg/mL]	MIC [2] [µg/mL]	MIC [3] [µg/mL]	MIC [4] [µg/mL]	MIC [5] [µg/mL]	MIC [6] [µg/mL]	MIC [7] [µg/mL]	MIC [8] [µg/mL]	MIC [9] [µg/mL]	MIC [10] [µg/mL]	MIC [11] [µg/mL]	MIC [12] [µg/mL]	MIC [13] [µg/mL]	MIC [14] [µg/mL]
CCN1CCN(C(=O)NC(C(=O)N[C@]2(OC)C(=O)N3C(C(=O)O)=C(CSc4nnnn4CC(=O)NO)CS[C@@H]32)c2cccs2)C(=O)C1=O (some centres unmarked)	1.56 (≈ 2.15 µM)	≥ 200	50 (≈ 69 µM)	≤ 0.1	200 (≈ 276 µM)	1.56 (≈ 2.15 µM)	100 (≈ 138 µM)	0.78 (≈ 1.08 µM)	12.5 (≈ 17.2 µM)	25 (≈ 34.5 µM)	25 (≈ 34.5 µM)	0.78 (≈ 1.08 µM)	100 (≈ 138 µM)	200 (≈ 276 µM)
CCN1CCN(C(=O)NC(C(=O)N[C@]2(OC)C(=O)N3C(C(=O)O)=C(CSc4nnnn4CC(N)=O)CS[C@@H]32)c2ccco2)C(=O)C1=O (some centres unmarked)				≤ 0.1	25 (≈ 36.1 µM)	0.2 (≈ 0.289 µM)		1.56 (≈ 2.25 µM)	12.5 (≈ 18 µM)		6.25 (≈ 9.02 µM)	≤ 0.1		6.25 (≈ 9.02 µM)
C=Cn1nnnc1SCC1=C(C(=O)O)N2C(=O)[C@](NC(=O)C(NC(=O)N3CCN(CC)C(=O)C3=O)c3ccco3)(OC)[C@H]2SC1 (some centres unmarked)				≤ 0.1	25 (≈ 37.8 µM)	0.2 (≈ 0.302 µM)		3.13 (≈ 4.73 µM)	25 (≈ 37.8 µM)		3.13 (≈ 4.73 µM)	≤ 0.1		
CCN1CCN(C(=O)NC(C(=O)N[C@]2(OC)C(=O)N3C(C(=O)O)=C(CSc4nnnn4C)CS[C@@H]32)c2csc(N)n2)C(=O)C1=O (some centres unmarked)	25 (≈ 36.7 µM)	50 (≈ 73.3 µM)	1.56 (≈ 2.29 µM)	≤ 0.1	25 (≈ 36.7 µM)	0.2 (≈ 0.293 µM)	1.56 (≈ 2.29 µM)	0.78 (≈ 1.14 µM)	12.5 (≈ 18.3 µM)	25 (≈ 36.7 µM)	3.13 (≈ 4.59 µM)	≤ 0.1	100 (≈ 147 µM)	
CCN1CCN(C(=O)NC(C(=O)N[C@]2(OC)C(=O)N3C(C(=O)O)=C(CSc4nnc(C)s4)CS[C@@H]32)c2csc(N)n2)C(=O)C1=O (some centres unmarked)	25 (≈ 35.8 µM)			≤ 0.1				3.13 (≈ 4.49 µM)	25 (≈ 35.8 µM)		6.25 (≈ 8.96 µM)	0.39 (≈ 0.559 µM)		

Next, values leading:

MIC [1] [µg/mL]	MIC [2] [µg/mL]	MIC [3] [µg/mL]	MIC [4] [µg/mL]	MIC [5] [µg/mL]	MIC [6] [µg/mL]	MIC [7] [µg/mL]	MIC [8] [µg/mL]	MIC [9] [µg/mL]	MIC [10] [µg/mL]	MIC [11] [µg/mL]	MIC [12] [µg/mL]	MIC [13] [µg/mL]	MIC [14] [µg/mL]	Structure (SMILES)
12.5 (≈ 19.2 µM)	25 (≈ 38.5 µM)		≤ 0.1	25 (≈ 38.5 µM)	0.2 (≈ 0.308 µM)	6.25 (≈ 9.62 µM)	0.78 (≈ 1.2 µM)	12.5 (≈ 19.2 µM)	25 (≈ 38.5 µM)	6.25 (≈ 9.62 µM)	≤ 0.1	100 (≈ 154 µM)	12.5 (≈ 19.2 µM)	CCN1CCN(C(=O)NC(C(=O)N[C@]2(OC)C(=O)N3C(C(=O)O)=C(CSc4nnnn4C)CS[C@@H]32)c2ccco2)C(=O)C1=O (some centres unmarked)
			≤ 0.1	25 (≈ 36.8 µM)	0.2 (≈ 0.294 µM)		1.56 (≈ 2.3 µM)	12.5 (≈ 18.4 µM)		6.25 (≈ 9.2 µM)	≤ 0.1			CCN1CCN(C(=O)NC(C(=O)N[C@]2(OC)C(=O)N3C(C(=O)O)=C(CSc4nnnn4CCO)CS[C@@H]32)c2ccco2)C(=O)C1=O (some centres unmarked)
12.5 (≈ 17.2 µM)			≤ 0.1				1.56 (≈ 2.15 µM)	12.5 (≈ 17.2 µM)		3.13 (≈ 4.32 µM)	≤ 0.1			CCN1CCN(C(=O)NC(C(=O)N[C@]2(OC)C(=O)N3C(C(=O)O)=C(CSc4nnnn4CC(N)=O)CS[C@@H]32)c2csc(N)n2)C(=O)C1=O (some centres unmarked)
25 (≈ 40 µM)			≤ 0.1				3.13 (≈ 5 µM)	25 (≈ 40 µM)		6.25 (≈ 9.99 µM)	0.39 (≈ 0.623 µM)			CCN1CCN(C(=O)NC(C(=O)N[C@]2(OC)C(=O)N3C(C(=O)O)=C(COC(C)=O)CS[C@@H]32)c2csc(N)n2)C(=O)C1=O (some centres unmarked) [OCOCH3]
